Assay results taken from patent publication US9278942B2, “Non-steroidal compounds as androgen receptor modulators” (FLX Discoveries Oy, priority 2011, dated 2016).
Like-named read-outs stand apart in the source and are kept apart here.

Key:
human AR [1] = target: T1, human AR (Homo sapiens, UniProt P10275); test: AR antagonism assay: inhibition of transcriptional activation of AR (Probasin-luc reporter, COS-1 cells); assay type: cell-based; conditions: compound 10.0 μM, relative luciferase response: 100% for testosterone (no antiandrogenic effect), 0% for complete antagonism; for remaining activity at 10 µM: COS-1, 18 h, read-out: AR antagonism against 100 nM testosterone ± S.D.
T1 construct: expressed in transfected cells; host or cells: COS-1
T1 sequence (P10275 1-920): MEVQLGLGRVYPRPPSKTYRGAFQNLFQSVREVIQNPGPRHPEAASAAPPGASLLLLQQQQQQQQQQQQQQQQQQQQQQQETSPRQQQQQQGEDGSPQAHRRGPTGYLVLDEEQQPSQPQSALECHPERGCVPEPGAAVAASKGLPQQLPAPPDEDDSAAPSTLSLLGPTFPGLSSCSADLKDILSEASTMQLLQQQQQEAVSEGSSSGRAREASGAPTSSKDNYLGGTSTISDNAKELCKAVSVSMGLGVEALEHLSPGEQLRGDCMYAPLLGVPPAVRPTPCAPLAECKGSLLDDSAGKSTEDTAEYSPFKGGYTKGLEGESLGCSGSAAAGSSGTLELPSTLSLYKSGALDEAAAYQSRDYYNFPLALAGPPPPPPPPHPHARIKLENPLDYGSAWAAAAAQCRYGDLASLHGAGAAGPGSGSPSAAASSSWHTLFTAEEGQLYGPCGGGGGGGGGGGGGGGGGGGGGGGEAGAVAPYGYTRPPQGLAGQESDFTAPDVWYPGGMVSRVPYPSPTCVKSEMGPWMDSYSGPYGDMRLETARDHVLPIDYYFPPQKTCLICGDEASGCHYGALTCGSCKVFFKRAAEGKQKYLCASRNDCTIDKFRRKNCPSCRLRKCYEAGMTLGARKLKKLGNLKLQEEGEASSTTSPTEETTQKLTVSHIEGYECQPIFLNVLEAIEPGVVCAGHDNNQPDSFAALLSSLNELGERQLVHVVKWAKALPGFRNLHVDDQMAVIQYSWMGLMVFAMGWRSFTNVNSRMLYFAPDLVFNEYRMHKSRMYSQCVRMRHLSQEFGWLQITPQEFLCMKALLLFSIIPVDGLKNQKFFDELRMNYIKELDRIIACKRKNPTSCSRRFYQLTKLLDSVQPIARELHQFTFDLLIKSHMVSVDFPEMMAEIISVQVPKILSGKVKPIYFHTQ
Experimental: Determination of the Antiandrogen Activity.
Testosterone was bought from Sigma Chemical Co. (St. Louis, Mo.) and hydroxyflutamide from Chemos GmbH. One day before transfection, COS-1 cells (from ATCC) were seeded into 1 ml of DMEM (Dulbecco's modified Eagle medium, Gibco) with 10% dextran-charcoal-treated fetal bovine serum and 0.25% (vol/vol) Penicillin-Streptomycin (Euroclone) at a density of 70×10^3 cells/well. After medium change to DMEM 2.5% FBS, the cells were transfected for 24 hours with 10 ng/well of human AR expression vector pSG5-hAR, 100 ng/well of reporter plasmid Probasin-luc, and 10 ng/well of control plasmid pCMV-β-gal by using the TransIT method (Micrus Bio TransIT LT1, Transfection Reagent). After the transfection, the cells received treatment of test compounds giving final concentration of 10 μM for each compound. In the antagonist test the wells were also treated with 100 nM final concentration of testosterone. After 18 hours, the cells were washed, lysed and assayed for luciferase and normalization for β-galactosidase activities and protein concentrations. The cells were washed with 100 μl of cold phosphate buffered saline (PBS) and lysed with 35 μl 1× Reporter lysis Buffer (Promega) and frozen (−70° C.) for 30 minutes. Cell lysates were placed in 1.5-ml propylene tubes and centrifuged at 13200×g for 5 minutes at room temperature. For β-galactosidase assay 10 μl of supernatant from each cell extract was transferred to a 96-well plate (96 well Elisa Microplates, PS, Microcon) and incubated for 10 minutes at 37° C. with 65 μl of reaction mixture consisting 0.76 μl 100×Mg-buffer, 12.5 μl ONPG (4 mg/ml), and 54.3 μl of sodium-phosphate buffer (pH 7). The reaction was stopped with treatment of 125 μl Na2CO3. For luciferase assay 10 μl of the supernatant was transferred to a 96-well plate (Greiner Microlon lumitrac 200) and treated with 30 μl of luciferase assay substrate solution (Promega Luciferase Assay System E1501). For the study of protein concentrations 5 μl of the supernatant was transferred to a 96-well plate (Elisa Microplates, PS, Microcon) and mixed with 200 μl of Bio-rad protein assay reagent. The luciferase activities were measured with Thermo Luminoscan Ascent scanner and the protein concentrations and β-galactosidase activities with Thermo Labsystem Multiscan Ex scanner. Also blank and control samples were measured. During the maintenance, transfection, and treatment with tested compounds the cells were incubated in humidified atmosphere with 5% carbon dioxide at 37° C.

human AR [2] = target: T1, human AR; test: Competitive AR binding assay against [3H]-R1881 in transiently transfected COS-1 cells; conditions: compound 13.4 μM, [3H]-R1881 1.34 nM, complete inhibition equals 100%; for inhibition at 13.4 µM: read-out: Inhibition of [3H]-R1881 binding at 1.34 nM ± S.D.
In short: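 COS-1 cells transfected 24 h with human AR vector, then after 36 h exposed 2 h at 37° C to compound at 10000-fold molar excess over 1.34 nM [3H]-R1881. Cell-bound radioactivity counted in triplicate; result given as % inhibition of labelled R1881 binding.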

Structure (SMILES)	remaining activity at 10 µM (human AR [1]) [%]	inhibition at 13.4 µM (human AR [2]; Table 2) [%]	AR antagonism against 100 nM testosterone ± S.D. (human AR [1]) [%]	also measured
Fc1ccc(C2=NOC3CCCCCC23)c(C(F)(F)F)c1 (centres unmarked) [Example 40a, 3-(4-Fluoro-2-trifluoromethyl-phenyl)-4,5,6,7,8,8a-hexahydro-3aH-cyclohepta[d]isoxazole]	28.8 ± 2	88.8 ± 3.1		
Fc1ccc(C2=NOC3CCCCCCC23)c(C(F)(F)F)c1 (centres unmarked) [Example 44a, 3-(4-Fluoro-2-trifluoromethyl-phenyl)-3a,4,5,6,7,8,9,9a-octahydro-cycloocta[d]isoxazole]	19.8 ± 0.5			inhibition at 13.4 µM (human AR [2]; Table 3): 90.3 ± 2.7%
Fc1ccc(C2=NOC3CCCCCCC23)c(C(F)(F)F)c1 (centres unmarked) [Example 44b, 3-(4-Fluoro-2-trifluoromethyl-phenyl)-3a,4,5,6,7,8,9,9a-octahydro-cycloocta[d]isoxazole]			35.6 ± 7.8	Inhibition of [3H]-R1881 binding at 1.34 nM ± S.D. (human AR [2]; Table 3): 85.2 ± 3.8%
O=[N+]([O-])c1ccc(C2=NOC3CCCCCCC23)c(C(F)(F)F)c1 (centres unmarked) [Example 46a, 3-(4-Nitro-2-trifluoromethyl-phenyl)-3a,4,5,6,7,8,9,9a-octahydro-cycloocta[d]isoxazole]	3.1 ± 1.7			inhibition at 13.4 µM (human AR [2]; Table 3): 86.4 ± 1.8%
O=[N+]([O-])c1ccc(C2=NOC3CCCCCCC23)c(C(F)(F)F)c1 (centres unmarked) [Example 46b, 3-(4-Nitro-2-trifluoromethyl-phenyl)-3a,4,5,6,7,8,9,9a-octahydro-cycloocta[d]isoxazole]			2.2 ± 0.8	Inhibition of [3H]-R1881 binding at 1.34 nM ± S.D. (human AR [2]; Table 3): 90.4 ± 3.8%
N#Cc1ccc(C2=NOC3CCCC23)c(C(F)(F)F)c1 (centres unmarked) [Example 86ab, 4-(4,5,6,6a-Tetrahydro-3aH-cyclopenta[d]isoxazol-3-yl)-3-trifluoromethyl-benzonitrile]	29.3 ± 3.7			inhibition at 13.4 µM (human AR [2]; Table 3): 91.7 ± 1.7%
N#Cc1ccc(C2=NOC3CCCCC23)cc1C(F)(F)F (centres unmarked) [Example 88ab, 4-(3a,4,5,6,7,7a-Hexahydro-benzo[d]isoxazol-3-yl)-2-trifluoromethyl benzonitrile]		99.2 ± 0.5	9.2 ± 1.7	
N#Cc1ccc(C2=NOC3CCCCC23)c(C(F)(F)F)c1 (centres unmarked) [Example 89a, 4-(3a,4,5,6,7,7a-Hexahydro-benzo[d]isoxazol-3-yl)-3-trifluoromethyl benzonitrile]	27.5 ± 4.1	78.8 ± 0.6		
N#Cc1ccc(C2=NOC3CCCCC23)c(C(F)(F)F)c1 (centres unmarked) [Example 89b, 4-(3a,4,5,6,7,7a-Hexahydro-benzo[d]isoxazol-3-yl)-3-trifluoromethyl benzonitrile]			20.3 ± 1.7	Inhibition of [3H]-R1881 binding at 1.34 nM ± S.D. (human AR [2]; Table 2): 83.6 ± 0.9%
N#Cc1ccc(C2=NOC3CCCCCC23)cc1C(F)(F)F (centres unmarked) [Example 90ab, 4-(4,5,6,7,8,8a-Hexahydro-3aH-cyclohepta[d]isoxazol-3-yl)-2-trifluoromethyl-benzonitrile]	12.6 ± 0.7	98.7 ± 0.6		
N#Cc1ccc(C2=NOC3CCCCCC23)c(C(F)(F)F)c1 (centres unmarked) [Example 91a, 4-(4,5,6,7,8,8a-Hexahydro-3aH-cyclohepta[d]isoxazol-3-yl)-3-trifluoromethyl benzonitrile]	29.8 ± 3.6	85.4 ± 1.5		
N#Cc1ccc(C2=NOC3CCCCCC23)c(C(F)(F)F)c1 (centres unmarked) [Example 91b, 4-(4,5,6,7,8,8a-Hexahydro-3aH-cyclohepta[d]isoxazol-3-yl)-3-trifluoromethyl benzonitrile]			27.2 ± 4.8	Inhibition of [3H]-R1881 binding at 1.34 nM ± S.D. (human AR [2]; Table 2): 87.4 ± 2.7%
N#Cc1ccc(C2=NOC3CCCCCCC23)cc1C(F)(F)F (centres unmarked) [Example 92ab, 4-(3a,4,5,6,7,8,9,9a-Octahydro-cycloocta[d]isoxazol-3-yl)-2-trifluoromethyl-benzonitrile]	24 ± 1.7	85.8 ± 1.3		
N#Cc1cccc(C2=NOC3CCCCCC23)c1C(F)(F)F (centres unmarked) [Example 95a, 3-(4,5,6,7,8,8a-Hexahydro-3aH-cyclohepta[d]isoxazol-3-yl)-2-trifluoromethyl-benzonitrile]	14.4 ± 1.9			inhibition at 13.4 µM (human AR [2]; Table 3): 96.2 ± 0.8%

More lines, main results first:

remaining activity at 10 µM (human AR [1]) [%]	inhibition at 13.4 µM (human AR [2]; Table 2) [%]	AR antagonism against 100 nM testosterone ± S.D. (human AR [1]) [%]	Structure (SMILES)	also measured
		15.6 ± 0.8	Fc1ccc(C2=NOC3CCCCCC23)c(C(F)(F)F)c1 (centres unmarked) [Example 40b, 3-(4-Fluoro-2-trifluoromethyl-phenyl)-4,5,6,7,8,8a-hexahydro-3aH-cyclohepta[d]isoxazole]	Inhibition of [3H]-R1881 binding at 1.34 nM ± S.D. (human AR [2]; Table 2): 92.2 ± 0.7%
10.1 ± 0.9	97.8 ± 0.5		O=[N+]([O-])c1ccc(C2=NOC3CCCCCC23)cc1C(F)(F)F (centres unmarked) [Example 41ab, 3-(4-Nitro-3-trifluoromethyl-phenyl)-4,5,6,7,8,8a-hexahydro-3aH-cyclohepta[d]isoxazole]	
17.4 ± 1.5	90.5 ± 3.1		O=[N+]([O-])c1ccc(C2=NOC3CCCCCC23)c(C(F)(F)F)c1 (centres unmarked) [Example 42a, 3-(4-Nitro-2-trifluoromethyl-phenyl)-4,5,6,7,8,8a-hexahydro-3aH-cyclohepta[d]isoxazole]	inhibition at 13.4 µM (human AR [2]; Table 3): 91.4 ± 3.8%
		25.5 ± 1.5	O=[N+]([O-])c1ccc(C2=NOC3CCCCCC23)c(C(F)(F)F)c1 (centres unmarked) [Example 42b, 3-(4-Nitro-2-trifluoromethyl-phenyl)-4,5,6,7,8,8a-hexahydro-3aH-cyclohepta[d]isoxazole]	Inhibition of [3H]-R1881 binding at 1.34 nM ± S.D. (human AR [2]; Table 2): 89.5 ± 2.0%; Inhibition of [3H]-R1881 binding at 1.34 nM ± S.D. (human AR [2]; Table 3): 89.3 ± 4.8%
57.7 ± 9.9			Fc1ccc(C2=NOC3CCCCCCC23)cc1C(F)(F)F (centres unmarked) [Example 43a, 3-(4-Fluoro-3-trifluoromethyl-phenyl)-3a,4,5,6,7,8,9,9a-octahydro-cycloocta[d]isoxazole]	Inhibition of [3H]-R1881 binding at 1.34 nM ± S.D. (human AR [2]; Table 2): 66.3 ± 9.8%
	76 ± 0.3	56.6 ± 1.4	Fc1ccc(C2=NOC3CCCCCCC23)cc1C(F)(F)F (centres unmarked) [Example 43b, 3-(4-Fluoro-3-trifluoromethyl-phenyl)-3a,4,5,6,7,8,9,9a-octahydro-cycloocta[d]isoxazole]	
27.8 ± 1			O=[N+]([O-])c1ccc(C2=NOC3CCCCCCC23)cc1C(F)(F)F (centres unmarked) [Example 45ab, 3-(4-Nitro-3-trifluoromethyl-phenyl)-3a,4,5,6,7,8,9,9a-octahydro-cycloocta[d]isoxazole]	inhibition at 13.4 µM (human AR [2]; Table 3): 85.7 ± 3.8%
